Values quoted from earlier work as cited in patent US6562588B2, “Sialidase and recombinant cell lines” (Genentech, Inc., priority 1993, dated 2003).
Read-outs that look alike come from different tables or passages of the source.

Columns and labels:
[1] = target: cytosolic sialidase from rat muscle (Rattus norvegicus, UniProt Q64627); conditions: read-out: Ki, rat muscle sialidase (Cytosol)
[2] = target: T1, lysosomal sialidase (Fibroblasts) (Homo sapiens, UniProt Q99519); conditions: read-out: Ki, fibroblast sialidase (Lysosome)
T1 construct: host or cells: fibroblasts

[3] = test system: plasma membrane sialidase (Adenovirus Transformed Kidney Cells); conditions: read-out: Ki, adenovirus transformed kidney cell sialidase (Plasma Membrane)

Sequence of cytosolic sialidase from rat muscle (Q64627 whole entry): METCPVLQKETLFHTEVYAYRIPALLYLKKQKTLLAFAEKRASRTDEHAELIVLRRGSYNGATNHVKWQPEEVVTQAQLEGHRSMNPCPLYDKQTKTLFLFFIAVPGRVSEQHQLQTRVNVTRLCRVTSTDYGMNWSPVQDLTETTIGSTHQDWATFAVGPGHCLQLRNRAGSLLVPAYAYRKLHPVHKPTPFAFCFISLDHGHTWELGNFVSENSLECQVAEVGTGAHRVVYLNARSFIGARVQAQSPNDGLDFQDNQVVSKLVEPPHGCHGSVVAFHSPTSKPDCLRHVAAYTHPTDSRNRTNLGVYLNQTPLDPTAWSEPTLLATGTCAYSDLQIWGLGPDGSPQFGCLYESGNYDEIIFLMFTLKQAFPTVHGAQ

Ki ([1]; 4-MU-Neu5Ac as substrate, previously reported data) [µM] | Compound | Ki [1] [µM] | Ki [2] [µM] | Ki [3] [µM]
> 50 | CC(=O)N[C@H]1[C@H]([C@H](O)[C@H](O)CSc2ccc(N=[N+]=[N-])cc2[N+](=O)[O-])OC(C(=O)O)=C[C@@H]1O [9-S-PANP Neu5Ac2en, 9-S-(4′-azido-2′-nitro-phenyl)-5-acetamido-2,6 anhydro-9-thio-2,5,9-trideoxy-D-glycero-D-galacto-non-2-enonic acid] | – | – | –
– | CC(=O)N[C@H]1[C@H]([C@H](O)[C@H](O)CN=[N+]=[N-])OC(C(=O)O)=C[C@@H]1O [9-Azido Neu5Ac2en, 5-acetamido-2,6-anhydro-9-azido-3,5,9-trideoxy-D-glycero-D-galacto-non-2-enonic acid] | 50 | 10 | 10
